{"source": "patent US6328728A", "about": "“Composition and method for enhancing electrotransport agent delivery” (Alza Corporation, priority 1997, dated 2001)", "molecules": {"B1": {"name": "Ribonuclease: protein, molecular weight 13,686 g/mol (protein, UniProt P61823 27-150, looked up)", "Ribonuclease pancreatic": "KETAAAKFERQHMDSSTSAASSSNYCNQMMKSRNLTKDRCKPVNTFVHESLADVQAVCSQKNVACKNGQTNCYQSYSTMSITDCRETGSSKYPNCAYKTTQANKHIIVACEGNPYVPVHFDASV"}}, "key": {"[1]": {"assay": "Measurement of circular dichroism (mean residue ellipticity at 222 nm)", "assay_type": "physicochemical", "conditions": "insulinotropin as agent", "from_the_text": "In general, the structure of a polypeptide in an aqueous buffered solution is in constant flux between portions thereof being random coil and alpha-helix configurations. For the polypeptides used in the following examples, the predominant structure is a random coil since the alpha-helix configuration is unstable in the absence of bound surfactant. According to the present invention adding surfactant to an aqueous solution of a polypeptide stabilizes the alpha-helix configuration. Circular dichroism is a measurement of the amount of the alpha-helix configured polypeptide present in the solution. Thus, circular dichroism provides an indirect measurement of the degree of binding of the surfactant to the polypeptide. (See, for example, Epand R. M., Epand R. F., Orlowski R. C., Schuleter R. J., Boni L. T. and Hui S. W., Biochemistry 22, 5074-5084 (1983); Hui, S. W., Epand R. M., Dell K. R., Epand R. F. and Orlowski R. C., Biochimica Biophysica Acta 772, 264-272 (1984); Epand R. M., Epand R. F., and Orlowski R. C., International Journal Peptide Protein Research 25 105-111; Epand R. M., Epand R. F., Orlowski R. C., Seyler J. K. and Colescott R. L., Biochemistry 25, 1964-1968; Epand R. M., Seyler J. K. and Orlowski R. C., European Journal Biochemistry 159, 125-127 (1986); Wiersema P. H., Loeb A. L. and Overbeek, J., Colloid Interface Science 22, 78-99 (1966)).\nThe surfactant/peptide circular dichroism (CD) spectra were obtained in a 2 mm path-length cell (110-Q-2 Model, AVIV, Lakewood, N.J.) at 32° C. The cell was initially loaded with 0.60 mL of a solution containing about 0.25 mg/mL of the peptide in 10 mM sodium chloroacetate (pH 3.5) or 10 mM sodium borate (pH 9.0). The buffers were selected to minimize the effect of the temperature on the pH of the solution and to minimize light absorption, thereby optimizing the signal-to-noise ratio (SNR). The peptide concentration was determined by spectrophotometry, with log-log correction for light scattering. The surfactant concentration was increased step-wise by titration of concentrated surfactant stock directly into the CD cell, followed by eight inversions of the cell, with the air bubble providing the mixing turbulence. After mixing, the cell was placed into the AVIV 62 CD spectrometer (AVIV, Lakewood, N.J.). In order to approximate temperature and chemical equilibrium, the sample remained in the spectrometer 5 minutes before a reading was taken. The CD spectrum was taken using a band pass of 1 nm, a data interval of 1 nm, and a data averaging time of 10 seconds. The mean residue ellipticity is the ellipticity divided by the path length in cm times the amino acid residue concentration in decimoles/cm^3. See Methods in Enzymology, Vol 130, pp 208-269, Yang et al, \"Calculation of Protein Conformation from Circular Dichroism\" (1986).\n(§1) The measurement procedures described above were conducted on an aqueous solution of the protein insulinotropin, with TWEEN® 20 (MW=1126 g/mol) as the surfactant, with the following modifications. The insulinotropin donor solution concentration was 0.12 mg/mL. One test was run in 10 mM sodium borate at pH 9.0 and another test in 10 mM sodium chloroacetate at pH 3.5.\n(§2) Fractional changes (%δ) are defined as the difference between the reading at a given surfactant concentration (Ec) minus the reading at zero surfactant (E0), the quantity divided by the difference between the reading at saturated surfactant concentration (Es) minus the reading at zero surfactant (E0), i. e. %δ=(Ec -E0)/(Es-E0).\nThe measurement procedures described earlier were conducted on an aqueous solution of insulinotropin as the agent, and TWEEN® 40 (molecular weight 1282 g/mol) as the surfactant with the following changes. The insulinotropin concentration was initially 0.29 mg/mL, and 0.21 mg/mL after the final TWEEN® 40 addition and the temperature was held at 32° C. Two tests were conducted at two different concentrations of TWEEN® 40. […]"}, "[2]": {"assay": "Electrophoretic mobility by capillary zone electrophoresis", "assay_type": "physicochemical", "conditions": "no surfactant", "protocol": "Since electrophoretic mobility (ie, the ability of a drug/agent to migrate in an electric field) is an important aspect of electrotransport drug delivery, the electrophoretic mobility of the drug/agent being delivered is predictive of suitability for transdermal electrotransport delivery. Electrophoretic mobility measurements were performed using a capillary zone electrophoresis instrument (model 2100 P/ACE instrument, Beckman Instruments, Inc., Palo Alto, Calif.). At acid pH values DB-WAX, DB-1, DB-17 (J&W Scientific, Folsom, Calif.) capillary columns were used either with 50 or 100 micron internal diameter column and CElect H75 (Supelco, Bellefonte, Pa.) capillary column with a 75 micron internal diameter. At alkaline pH values uncoated silica capillaries of length 57 cm with an internal diameter of 75 microns were used with an applied voltage of 20 kV. If any electroosmotic flow was present, it was detected using a neutral marker such as 0.01% benzyl alcohol (SIGMA, St. Louis, Mo.) or 1/500 mesityl oxide (Applied Biosystems, Foster City, Calif.). The optimum voltage was determined by doing an Ohm's Law test on each buffer and capillary system. The temperature of the capillary columns was set at 32° C. and a two second pressure injection was done. A UV detector was used to monitor peptide and markers at either 214 or 280 nm.\nVoltage injection had to be used for the 27 cm length column. The voltage applied varied depending on the capillary length.\nThe following equation was used to determine electrophoretic mobility μ. [formula]\nIf the electroosmotic flow is detected, the following equation can be used.\nμpeptide =μtotal -μneutral marker\nas §1, §2\nThe measurement procedures described earlier were conducted in this example on an aqueous solution containing insulinotropin as the agent and dodecyl trimethyl ammonium chloride (DTAC) as the ionic surfactant with the following modifications. […]\nThe same measurement procedures were conducted using an aqueous solution of salmon calcitonin as the agent and the zwitterionic dodecyl sulfobetaine as the surfactant with the following modifications. The temperature was initially 32° C., the surfactant concentration was varied up to 30 mM, and the calcitonin concentration was 0.06 to 0.08 mM. Tables 7, 8, and 9 below provide the results obtained in terms of polypeptide ellipticity expressed as a function of zwitterionic surfactant concentration at pH 3.5 in 12 mM sodium chloroacetate (Table 7), 5.0 in 4 mM piperazine HCI (Table 8), and 6.5 in 15 mM sodium cacodylate (Table 9), respectively. Table 8, in addition, provides the results obtained on electrophoretic mobility and HIC retention time in a phenyl superose column at pH 5.0."}, "[3]": {"assay": "Hydrophobicity by hydrophobic interaction chromatography (HIC), phenyl Superose column (retention time, ta/tm)", "assay_type": "physicochemical", "conditions": "for HIC Retention Time (Phenyl Superose Col.): no surfactant", "protocol": "The hydrophobicity of an agent (eg, an agent such as a polypeptide or protein in solution, as well as the relative increase or decrease thereof) is determined by passing the agent-containing solution through a chromatography column filled with a particular \"hydrophobic interaction\" bead material and measuring either (1) the time required for the agent to elute (ie, pass through) the column or (2) the volume of liquid (ie, the same liquid used in the agent-containing sample, but with the agent removed) required to be pumped through the column in order to elute the agent. For the purposes of the present invention, the hydrophobicity of an agent is defined in terms relative to the marker compound, N-acetyl tryptophanamide (sold by Sigma Chemical, St. Louis, Mo.), which has a somewhat moderate hydrophobicity. Hydrophobicity, as that term is used herein, is measured using a 5 mm diameter glass column having a length of 5 cm (ie, column volume of 1.0 mL) and packed with cross-linked agar beads having an average particle size of 13.5 μm. Examples of suitable hydrophobic bead materials include cross-linked agar gel beads (Superose 12) having hydrophobic ligands attached to the agar via chemically stable ether linkages ((Superose 12)--O--CH2 --CHOH--CH2 --O--R) such as alkyl-Superose wherein R is --CH2 --C(CH3)3 and phenyl-Superose wherein R is phenyl, both of which are sold in pre-packaged column form by Pharmacia Biotech, Inc. of Piscataway, N.J. Immediately downstream from the column is placed a flow cell which permits continuous UV absorbance measurements of the solution flowing out of the column. Suitable flow cells and UV absorbance detectors are sold by Perkin-Elmer Corp., Applied Biosystems, Foster City, Calif. Hydrophobicity measurements are conducted at 32° C. with the same buffer that is used in the electrotransport system which is used to deliver the agent (eg, transdermally) to the patient. The buffer strength used in the hydrophobicity measurements is 10 mM ionic strength. The term \"certain hydrophobicity\" as used herein, means that the time required for the agent to elute from the column, relative to the time required for N-acetyl tryptophanamide to elute, is as follows:\nta /tm >0.7, and preferably ta /tm >3\nta is the time at which the peak UV absorbance value is recorded for the beneficial agent in the flow cell, less the time required to initially fill the column with the agent-containing solution (ie, dead volume retention time); and\ntm is the time at which the peak UV absorbance value is recorded for the N-acetyl tryptophanamide marker in the flow cell, less the time required to initially fill the column with the marker-containing solution (ie, dead volume retention time).\nThe above described measurement of agent hydrophobicity is substantially independent of column size and flow rate through the column.\nOne method of measuring the hydrophobicity of an agent such as a polypeptide or protein is by hydrophobic interaction chromatography (HIC). The principles and conditions associated with HIC are fully described in Protein Purification: Principles, High Resolution Methods, and Applications, Janson and Ryden, Eds., pp. 207-226 (1989), the pertinent portions of which are incorporated herein by reference. This method requires passing a composition through a hydrophobic interaction column and measuring the volume of solvent required for its complete elution. The hydrophobic sites on the agent are generally attracted to hydrophobic groups, such as aryl groups, affixed to beads placed within the column. A preferred HIC column material is phenyl-superose (Pharmacia, Sweden), a cross-linked polysaccharide which has been covalently modified to have pendant hydrophobic aryl groups. These pendant groups are similar to the hydrophobic or lipophilic species in the skin layers. Thus, this hydrophobic interaction column approximates, and is a good in vitro model for, an animal's skin layer as a barrier to transport of a polypeptide or protein. […]"}, "[4]": {"conditions": "pH 6.5", "procedure": "A. Preparation of Human Skin Samples\nHuman cadaver skin was prepared by first removing about 1 mm thick skin samples in the form of strips. The skin strips were placed in polyethylene bags, sealed and placed in a refrigerator at about 4° C. for temporary storage. Prior to use in the electrotransport cell, the skin strips were placed in one-liter beakers containing water at 60° C. for about 90 seconds with gentle stirring. Then, the skin strips were removed and placed onto the absorbent side of a piece of BENCHKOTE™ material with the dermis side down. Using flat tipped tweezers to retain the dermis, the epidermis was removed from each strip with a round-tip spatula. Each epidermis, stratum corneum side up, was transferred to a PYREX™ glass tray filled with water. Each floating epidermis was stretched essentially flat. After removal from the water 2.22 cm (7/8 in) diameter disks of each epidermis were punched out of areas having negligible surface damage. The discs were stored at 4° C. in a sealed container with water droplets to maintain their moisture.\nB. Set-up of Electrotransport Cell and Composition […]\nThe solution concentration of the polypeptide in the donor compartment 44 was, unless otherwise specified, 1 mM. […] The polypeptide flux was determined by periodic sampling of the solution in the receptor compartment 46. […]"}}}
{"molecule": "CCCCCCCCCCCC[N+](C)(C)C.[Cl-]", "note": "[DTAC, dodecyl trimethyl ammonium chloride, reference compound]", "values": [{"measurement": "surfactant concentration at which an ellipticity of -9000 occurs", "setting": "[1]", "value": "about 3.0 mM"}]}
{"molecule": "Lysozyme: protein, molecular weight 14,315 g/mol", "values": [{"measurement": "Electrophoretic Mobility", "setting": "[2]", "value": "2.4 × 10^-4 cm^2 /V-s"}, {"measurement": "HIC Retention Time (Phenyl Superose Col.)", "setting": "[3]", "value": 24.0, "unit": "min"}]}
{"molecule": "Cytochrome C: protein, molecular weight 12,400 g/mol", "values": [{"measurement": "Electrophoretic Mobility", "setting": "[2]", "value": "2.5 × 10^-4 cm^2 /V-s"}, {"measurement": "HIC Retention Time (Phenyl Superose Col.)", "setting": "[3]", "value": 2.0, "unit": "min"}]}
{"molecule": "D-Glu-D-Tyr-D-Leu-D-Lys-D-Ata-D-Leu-D-Leu-D-Ser-D-Lys-D-Leu-NH2 [Model Decapeptide, reference compound]", "values": [{"measurement": "in vitro Skin Flux", "setting": "[4]", "value": "l.3 μg/cm^2 -hr"}, {"measurement": "ta /tm", "setting": "[3]; 10 mM HIS buffer, pH 7.0", "value": 0.6}, {"measurement": "ta /tm", "setting": "[3]; HIS buffer, pH 7.2", "value": 0.5}, {"measurement": "ta /tm", "setting": "[3]; pH 6.5 (10 mM histidine), no enhancer", "value": 0.8}, {"measurement": "ta /tm", "setting": "[3]; pH 6.5 (10 mM histidine), no enhancer, listed as decapeptide", "value": "about 0.8"}, {"measurement": "ta /tm", "setting": "[3]; pH 6.5, with 3 mM Tween 20", "value": 0.9}]}
{"molecule": "B1", "values": [{"measurement": "Electrophoretic Mobility", "setting": "[2]", "value": "1.9 × 10^-4 cm^2 /V-s"}, {"measurement": "HIC Retention Time (Phenyl Superose Col.)", "setting": "[3]", "value": 12.1, "unit": "min"}]}
